For one experiment, the system named is KYSE-150 cell line. As to the kind of experiment: Antiproliferative activity against human KYSE-150 cells. In kind it is functional.
Experiment [1] addresses T1, Lysine-specific demethylase 4A (Homo sapiens, UniProt O75164).
T1 sequence (O75164 whole entry): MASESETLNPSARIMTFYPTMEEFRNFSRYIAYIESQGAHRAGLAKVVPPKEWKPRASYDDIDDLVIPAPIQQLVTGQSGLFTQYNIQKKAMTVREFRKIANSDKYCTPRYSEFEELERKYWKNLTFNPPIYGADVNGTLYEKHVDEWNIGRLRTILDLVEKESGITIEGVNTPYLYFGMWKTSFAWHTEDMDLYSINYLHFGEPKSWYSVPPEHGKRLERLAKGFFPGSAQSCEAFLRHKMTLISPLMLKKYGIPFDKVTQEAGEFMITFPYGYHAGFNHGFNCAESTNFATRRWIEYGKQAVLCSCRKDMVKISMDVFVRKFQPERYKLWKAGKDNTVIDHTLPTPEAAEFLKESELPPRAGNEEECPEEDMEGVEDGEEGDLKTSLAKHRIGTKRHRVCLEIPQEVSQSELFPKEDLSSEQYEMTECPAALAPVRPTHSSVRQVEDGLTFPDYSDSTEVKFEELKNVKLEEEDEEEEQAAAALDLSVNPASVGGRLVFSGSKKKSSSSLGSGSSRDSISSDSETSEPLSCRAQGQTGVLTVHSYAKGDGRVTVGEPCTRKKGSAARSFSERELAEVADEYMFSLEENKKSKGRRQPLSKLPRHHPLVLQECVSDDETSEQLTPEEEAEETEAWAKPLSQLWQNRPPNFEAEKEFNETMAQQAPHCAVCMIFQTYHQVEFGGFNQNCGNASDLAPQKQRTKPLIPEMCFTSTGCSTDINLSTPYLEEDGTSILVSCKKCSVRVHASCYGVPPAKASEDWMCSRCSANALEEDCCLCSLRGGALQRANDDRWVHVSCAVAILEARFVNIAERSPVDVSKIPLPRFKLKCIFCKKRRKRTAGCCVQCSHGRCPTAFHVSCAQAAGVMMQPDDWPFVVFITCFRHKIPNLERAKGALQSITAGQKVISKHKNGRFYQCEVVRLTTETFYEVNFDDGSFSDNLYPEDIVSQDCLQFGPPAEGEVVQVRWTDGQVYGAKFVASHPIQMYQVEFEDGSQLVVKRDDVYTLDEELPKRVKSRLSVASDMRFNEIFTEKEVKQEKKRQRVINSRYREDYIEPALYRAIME
As to the kind of experiment: Inhibition of KDM4A in human KYSE-150 cells assessed as increase in H3K9me3 level. It counts as cell-based, KYSE-150 cell line.

Another experiment relates to HL-60. As to the kind of experiment: Antiproliferative activity against human HL-60 cells. It counts as functional.
The target of experiment [2] is T1, Lysine-specific demethylase 4A.
Experiment [3] concerns the target T2, Lysine-specific demethylase 2A (Homo sapiens, UniProt Q9Y2K7).
T2 sequence (Q9Y2K7 whole entry): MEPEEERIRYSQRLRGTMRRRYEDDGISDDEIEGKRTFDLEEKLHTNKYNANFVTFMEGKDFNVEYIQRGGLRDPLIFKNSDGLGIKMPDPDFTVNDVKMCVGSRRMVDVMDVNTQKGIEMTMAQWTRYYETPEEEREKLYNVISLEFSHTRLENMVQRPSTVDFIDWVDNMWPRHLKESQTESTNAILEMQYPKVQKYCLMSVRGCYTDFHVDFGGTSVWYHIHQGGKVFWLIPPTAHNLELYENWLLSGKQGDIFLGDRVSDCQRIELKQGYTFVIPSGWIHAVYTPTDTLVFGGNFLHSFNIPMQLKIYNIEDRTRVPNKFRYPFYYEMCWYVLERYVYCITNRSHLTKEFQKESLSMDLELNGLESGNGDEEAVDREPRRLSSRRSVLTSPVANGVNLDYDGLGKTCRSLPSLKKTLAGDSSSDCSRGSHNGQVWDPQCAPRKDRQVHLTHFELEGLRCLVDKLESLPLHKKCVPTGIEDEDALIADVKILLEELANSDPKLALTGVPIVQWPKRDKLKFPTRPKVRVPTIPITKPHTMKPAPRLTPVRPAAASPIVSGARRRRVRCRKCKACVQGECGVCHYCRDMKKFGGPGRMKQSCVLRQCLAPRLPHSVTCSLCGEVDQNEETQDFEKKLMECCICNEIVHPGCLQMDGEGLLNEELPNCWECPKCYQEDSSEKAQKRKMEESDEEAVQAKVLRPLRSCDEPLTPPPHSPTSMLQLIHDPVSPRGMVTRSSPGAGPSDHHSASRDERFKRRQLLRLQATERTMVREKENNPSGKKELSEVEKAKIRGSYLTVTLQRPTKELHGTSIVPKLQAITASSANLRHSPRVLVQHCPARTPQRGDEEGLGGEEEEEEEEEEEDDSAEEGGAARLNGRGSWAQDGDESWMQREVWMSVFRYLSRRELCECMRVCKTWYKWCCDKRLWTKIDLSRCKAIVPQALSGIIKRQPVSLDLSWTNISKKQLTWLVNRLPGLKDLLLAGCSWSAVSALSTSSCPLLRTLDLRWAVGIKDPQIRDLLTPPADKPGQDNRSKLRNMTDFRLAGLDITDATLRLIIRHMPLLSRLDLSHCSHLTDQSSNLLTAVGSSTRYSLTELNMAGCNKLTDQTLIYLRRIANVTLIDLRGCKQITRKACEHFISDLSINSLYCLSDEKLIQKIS
The experiment is described as follows: Inhibition of KDM2A in human MIA PaCa-2 cells assessed as induction of H3K36me2 measured by immunofluorescence assay. In kind it is cell-based.

The target in experiment [4] is T1, Lysine-specific demethylase 4A. As to the kind of experiment: Inhibition of KDM4A (unknown origin) measured by AlphaScreen assay. Background: Bead proximity is the source of the signal in Alpha formats.
Experiment [5] addresses T3, Lysine-specific demethylase 4C (Homo sapiens, UniProt Q9H3R0).
T3 sequence (Q9H3R0 whole entry): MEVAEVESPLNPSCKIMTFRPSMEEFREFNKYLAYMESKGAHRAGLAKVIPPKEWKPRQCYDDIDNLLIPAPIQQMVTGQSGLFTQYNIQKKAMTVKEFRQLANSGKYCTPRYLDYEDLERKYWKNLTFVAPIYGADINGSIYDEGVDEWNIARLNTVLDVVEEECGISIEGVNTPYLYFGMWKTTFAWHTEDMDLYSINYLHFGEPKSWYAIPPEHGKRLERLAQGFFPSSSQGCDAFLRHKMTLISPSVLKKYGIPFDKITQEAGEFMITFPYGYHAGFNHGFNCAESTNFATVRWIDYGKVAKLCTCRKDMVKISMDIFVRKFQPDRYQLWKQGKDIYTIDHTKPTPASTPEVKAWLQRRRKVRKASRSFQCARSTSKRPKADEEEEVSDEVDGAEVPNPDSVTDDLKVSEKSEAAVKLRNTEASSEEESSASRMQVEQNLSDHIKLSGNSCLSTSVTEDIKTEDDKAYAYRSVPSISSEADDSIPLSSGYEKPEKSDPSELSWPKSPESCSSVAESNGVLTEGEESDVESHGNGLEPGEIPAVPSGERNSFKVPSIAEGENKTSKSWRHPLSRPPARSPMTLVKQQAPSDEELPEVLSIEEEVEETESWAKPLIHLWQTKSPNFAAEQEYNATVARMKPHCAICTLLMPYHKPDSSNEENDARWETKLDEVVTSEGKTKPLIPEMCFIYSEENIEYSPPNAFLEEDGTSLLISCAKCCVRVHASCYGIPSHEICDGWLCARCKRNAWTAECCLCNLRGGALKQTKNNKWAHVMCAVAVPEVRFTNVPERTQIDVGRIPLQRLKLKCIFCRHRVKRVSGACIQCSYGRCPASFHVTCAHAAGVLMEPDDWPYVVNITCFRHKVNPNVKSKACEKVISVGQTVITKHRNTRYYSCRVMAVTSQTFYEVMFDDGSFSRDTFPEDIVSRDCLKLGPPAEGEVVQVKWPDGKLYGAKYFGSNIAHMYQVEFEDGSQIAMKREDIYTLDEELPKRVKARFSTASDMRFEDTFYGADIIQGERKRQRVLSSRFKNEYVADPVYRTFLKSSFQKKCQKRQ
As to the kind of experiment: Inhibition of KDM4C (unknown origin) measured by AlphaScreen assay.

Experiment [6] deals with T1, Lysine-specific demethylase 4A. The experiment is described as follows: Inhibition of KDM4A (unknown origin) measured by LANCEUltra assay.
Experiment [7] shares this target. As to the kind of experiment: Inhibition of KDM4A (unknown origin) measured by formaldehyde dehydrogenase (FDH)-coupled fluorescence assay.
Experiment [8] has as its target Lysine-specific demethylase 5A (Homo sapiens, UniProt P29375). As to the kind of experiment: Inhibition of KDM5A (unknown origin) measured by AlphaScreen assay.
For experiment [9], the target named is Lysine-specific demethylase 6B (Homo sapiens, UniProt O15054). As to the kind of experiment: Inhibition of KDM6B (unknown origin) measured by AlphaScreen assay.
Sequence of Lysine-specific demethylase 6B (O15054 whole entry): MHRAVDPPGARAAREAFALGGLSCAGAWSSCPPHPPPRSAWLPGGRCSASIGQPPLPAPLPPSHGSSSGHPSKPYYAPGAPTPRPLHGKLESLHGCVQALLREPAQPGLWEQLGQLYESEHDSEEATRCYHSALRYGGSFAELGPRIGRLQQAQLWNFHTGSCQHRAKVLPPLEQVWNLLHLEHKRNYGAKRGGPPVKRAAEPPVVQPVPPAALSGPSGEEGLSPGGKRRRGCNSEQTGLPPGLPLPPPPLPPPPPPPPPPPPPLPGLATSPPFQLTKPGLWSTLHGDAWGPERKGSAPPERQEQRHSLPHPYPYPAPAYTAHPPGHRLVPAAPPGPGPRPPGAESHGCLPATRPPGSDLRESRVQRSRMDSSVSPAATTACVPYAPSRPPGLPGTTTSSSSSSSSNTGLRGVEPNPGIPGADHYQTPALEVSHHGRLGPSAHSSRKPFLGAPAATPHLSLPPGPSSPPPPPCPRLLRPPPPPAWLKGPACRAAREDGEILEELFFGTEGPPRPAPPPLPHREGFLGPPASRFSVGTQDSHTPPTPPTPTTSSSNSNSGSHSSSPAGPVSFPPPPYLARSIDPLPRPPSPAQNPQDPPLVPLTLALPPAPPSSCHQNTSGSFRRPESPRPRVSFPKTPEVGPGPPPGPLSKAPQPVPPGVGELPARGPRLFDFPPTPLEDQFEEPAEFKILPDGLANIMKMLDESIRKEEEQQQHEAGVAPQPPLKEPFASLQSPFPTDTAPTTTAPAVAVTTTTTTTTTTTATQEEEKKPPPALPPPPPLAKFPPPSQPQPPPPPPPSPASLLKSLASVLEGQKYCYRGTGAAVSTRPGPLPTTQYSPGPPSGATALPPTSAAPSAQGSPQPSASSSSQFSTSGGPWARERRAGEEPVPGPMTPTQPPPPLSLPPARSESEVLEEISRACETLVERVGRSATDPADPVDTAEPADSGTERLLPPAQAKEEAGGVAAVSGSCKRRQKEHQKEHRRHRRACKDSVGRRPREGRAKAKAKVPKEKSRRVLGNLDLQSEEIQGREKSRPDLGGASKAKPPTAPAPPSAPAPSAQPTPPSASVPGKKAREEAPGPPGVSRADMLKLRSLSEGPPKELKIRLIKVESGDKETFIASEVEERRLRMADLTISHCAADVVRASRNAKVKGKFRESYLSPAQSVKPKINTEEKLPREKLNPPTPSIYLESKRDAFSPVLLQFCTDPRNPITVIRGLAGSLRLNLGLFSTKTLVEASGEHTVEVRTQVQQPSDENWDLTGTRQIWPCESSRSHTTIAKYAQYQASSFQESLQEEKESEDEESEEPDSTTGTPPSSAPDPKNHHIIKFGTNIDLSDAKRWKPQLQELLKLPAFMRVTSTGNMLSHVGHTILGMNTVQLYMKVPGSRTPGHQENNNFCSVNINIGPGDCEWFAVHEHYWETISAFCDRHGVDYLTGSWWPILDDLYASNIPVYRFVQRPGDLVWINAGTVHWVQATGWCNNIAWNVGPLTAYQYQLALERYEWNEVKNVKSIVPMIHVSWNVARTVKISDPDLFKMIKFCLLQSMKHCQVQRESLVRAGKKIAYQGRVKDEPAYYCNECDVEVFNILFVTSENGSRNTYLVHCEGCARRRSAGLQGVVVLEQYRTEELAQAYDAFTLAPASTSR

This note sets out measurements from ChEMBL document CHEMBL5137065, “Recent Advances with KDM4 Inhibitors and Potential Applications” (J Med Chem, 2022).

SMILES strings stand for the structures. Positions of bridges follow the written chain, without caps; N, C: chain ends. Non-standard residues stand in square brackets, D forms with d. Residues, ends and D or L forms follow the SMILES beside them.

Sequence of Lysine-specific demethylase 5A (P29375 whole entry): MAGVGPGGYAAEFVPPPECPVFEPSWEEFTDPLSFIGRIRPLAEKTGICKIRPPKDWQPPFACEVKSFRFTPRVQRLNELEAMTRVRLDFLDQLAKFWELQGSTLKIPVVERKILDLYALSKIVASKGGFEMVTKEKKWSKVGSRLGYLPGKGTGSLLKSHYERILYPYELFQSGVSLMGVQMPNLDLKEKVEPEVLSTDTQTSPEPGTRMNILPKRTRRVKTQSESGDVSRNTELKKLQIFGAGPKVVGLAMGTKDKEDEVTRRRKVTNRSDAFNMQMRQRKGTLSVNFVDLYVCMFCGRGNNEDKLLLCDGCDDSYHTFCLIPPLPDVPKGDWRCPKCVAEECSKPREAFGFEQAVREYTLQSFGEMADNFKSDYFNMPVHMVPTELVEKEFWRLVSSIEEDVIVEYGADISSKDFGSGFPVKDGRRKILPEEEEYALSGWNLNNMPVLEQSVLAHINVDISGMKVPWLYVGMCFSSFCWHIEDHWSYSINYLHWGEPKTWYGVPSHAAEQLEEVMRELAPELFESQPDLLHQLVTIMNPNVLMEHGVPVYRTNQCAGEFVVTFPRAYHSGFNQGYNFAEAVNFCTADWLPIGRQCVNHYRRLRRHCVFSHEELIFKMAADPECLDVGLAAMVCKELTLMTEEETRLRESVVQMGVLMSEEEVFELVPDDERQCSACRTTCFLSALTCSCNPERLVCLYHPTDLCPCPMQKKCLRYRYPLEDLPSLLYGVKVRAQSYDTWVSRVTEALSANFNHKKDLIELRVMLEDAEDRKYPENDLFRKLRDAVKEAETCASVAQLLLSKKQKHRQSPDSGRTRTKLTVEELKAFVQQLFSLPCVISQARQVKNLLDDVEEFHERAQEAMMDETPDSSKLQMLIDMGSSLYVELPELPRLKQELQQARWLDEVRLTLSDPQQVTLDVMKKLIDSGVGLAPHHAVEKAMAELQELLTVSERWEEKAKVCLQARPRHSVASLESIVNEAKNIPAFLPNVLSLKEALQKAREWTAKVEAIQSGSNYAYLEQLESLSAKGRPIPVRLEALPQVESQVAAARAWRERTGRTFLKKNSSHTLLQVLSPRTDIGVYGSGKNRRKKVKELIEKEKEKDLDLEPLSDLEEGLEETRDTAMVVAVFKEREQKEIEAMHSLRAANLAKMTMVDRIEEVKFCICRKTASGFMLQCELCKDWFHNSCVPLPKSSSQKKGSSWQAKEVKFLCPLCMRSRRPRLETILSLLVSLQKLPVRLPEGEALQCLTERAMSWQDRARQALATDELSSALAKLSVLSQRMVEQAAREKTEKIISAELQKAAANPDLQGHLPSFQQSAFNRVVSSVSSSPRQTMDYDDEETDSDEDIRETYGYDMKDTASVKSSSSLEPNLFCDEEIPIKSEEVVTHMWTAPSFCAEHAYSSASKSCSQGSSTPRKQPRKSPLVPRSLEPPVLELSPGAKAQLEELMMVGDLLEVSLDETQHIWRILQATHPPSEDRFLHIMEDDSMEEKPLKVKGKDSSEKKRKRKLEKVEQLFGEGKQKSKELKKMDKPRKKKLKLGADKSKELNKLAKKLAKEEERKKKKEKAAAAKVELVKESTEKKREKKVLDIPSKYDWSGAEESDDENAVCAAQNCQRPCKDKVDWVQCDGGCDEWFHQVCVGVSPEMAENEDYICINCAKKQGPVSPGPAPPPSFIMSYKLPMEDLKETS

For orientation: GI50 means the concentration giving 50% growth inhibition. High values mean lower sensitivity of the cells, low ones greater sensitivity of the cells. The term EC50 denotes the concentration that produces a half-maximal response. Turning to `COC(=O)c1ccc(-n2nc(-c3ccccc3O)nc2-c2ccccc2O)cc1`, the GI50 came to 450 nM in the experiment with KYSE-150 cell line and 1700 nM with HL-60. In experiment [1], the EC50 stood at 10000 nM.
For orientation: IC50 means the concentration at which inhibition is half-maximal. Consider `CCCCCC[n+]1ccccc1C=Cc1ccc(N(C)C)cc1`, for which the IC50 in [2] and in [3] was 280 nM each time.
`CC[C@H](C)[C@@H]1NC(=O)CNC(=O)[C@H](CO)NC(=O)[C@H](CCCNC(=N)N)NC(=O)[C@H](CCCNC(=N)N)NC(=O)[C@H](Cc2ccccc2)NC(=O)[C@H](CCCNC(=N)N)NC(=O)[C@H]([C@@H](C)O)NC(=O)[C@@H](Cc2ccc(O)cc2)NC(=O)CSC[C@@H](C(N)=O)NC(=O)[C@H](Cc2ccc(O)cc2)NC(=O)[C@H](Cc2ccc(O)cc2)NC(=O)[C@H](Cc2ccccc2)NC(=O)[C@H](C(C)C)NC1=O` ({CH2CO}-[dY]TRFRRSGIVFYYC-NH2; thioether N-14): the 50% inhibitory concentration (IC50) in [4] came out at 6 nM; in [5], 2.2 nM.
For the compound `Oc1ccccc1-c1nc(-c2ccccc2O)n(-c2ccccc2)n1`, the GI50 in the experiment on KYSE-150 cell line came out at 450 nM; with HL-60, 1700 nM. In experiment [1], the EC50 is 3300 nM.
`CC(=O)N(O)CCCCCNC(=O)CCC(=O)N(O)CCCCCNC(=O)CCC(=O)N(O)CCCCCN` [DEFEROXAMINE]: the results for the IC50 in experiment [6] and in experiment [7] were 3330 nM and 3220 nM, respectively.
Consider `O=C(O)c1ccc(-n2nc(-c3ccccc3O)nc2-c2ccccc2O)cc1` [DEFERASIROX], for which the GI50 with KYSE-150 cell line was determined as 3300 nM; with HL-60 it was 5500 nM. In [1], the EC50 came to 40500 nM. For the same compound, the IC50 turned out to be 3330 nM in experiment [6] and 3220 nM in [7].
As to `CC(C)[C@@H]1NC(=O)[C@@H](Cc2ccc(O)cc2)NC(=O)CSC[C@@H](C(N)=O)NC(=O)[C@H]([C@@H](C)O)NC(=O)[C@H](Cc2ccc(O)cc2)NC(=O)[C@H](Cc2c[nH]c3ccccc23)NC(=O)[C@H](CCCNC(=N)N)NC(=O)[C@H](Cc2c[nH]c3ccccc23)NC(=O)CNC(=O)[C@H](CO)NC(=O)[C@H](CCCNC(=N)N)NC(=O)[C@H]([C@@H](C)O)NC(=O)[C@H](CC(N)=O)NC(=O)[C@H](Cc2ccc(O)cc2)NC1=O` ({CH2CO}-[dY]VYNTRSGWRWYTC-NH2; thioether N-14), the IC50 in experiment [4] and in [5] was 33 nM each time.
With `COC1=C2C[C@@H](C)C[C@H](OC)[C@H](O)[C@@H](C)/C=C(\C)[C@H](OC(N)=O)[C@@H](OC)/C=C\C=C(/C)C(=O)NC(=CC1=O)C2=O` [GELDANAMYCIN], the IC50 in experiment [8] is 130 nM; in [5], 700 nM; in [9], 400 nM.
As for `Cc1c(O)c(=O)ccn1C` [DEFERIPRONE], the IC50 in [6] was found to be 3330 nM; in experiment [7], 3220 nM.
